Data: article PMC11042424, “Development of a First-in-Class RIPK1 Degrader to Enhance Antitumor Immunity” (Research Square, 2024)

Key:
B16F10 cells = test: TNFα-mediated apoptosis in B16F10 cells; type: cell-based, mouse; settings: 1 μM, TNFα 100 ng/mL, 72 hours
Text: Figure 3 LD4172 sensitizes B16F10 cells to TNFα-mediated apoptosis. A, Representative flow cytometry dot plots of apoptosis. In all four plots, viable cells are seen in the left lower quadrant (FITC-/PI-), early apoptotic cells in the right lower quadrant (FITC+/PI-), and late apoptotic cells in the right upper quadrant (FITC+/PI+). B, Representative images of PI (red) and caspase 3/7 (Cas3/7+, green) staining of B16F10 cells. Cell death assessed by PI uptake using Cytation 5 imager. C, Western blots for the expression of cleaved caspase3, cleaved caspase7, and cleaved PARP in B16F10 cells. D, Quantification of extracellular ATP level. Western blots for the expression of HMGB1 and calreticulin in B16F10 cells. E, Immunofluorescence staining of HMGB1 in B16F10 cells. B16F10 cells were treated in the presence or absence of TNFα (100 ng/mL), Z-VAD-FMK (25 μM), LD4172 (1 μM), and/or T2I (1 μM) as indicated for 72 hours. Data are representative of three independent experiments. Error bars represent SD.
Apoptosis quantification was conducted utilizing a FITC-conjugated Annexin V/PI assay kit (556547, BD Biosciences) and analyzed through flow cytometry. Briefly, 2×10^5 of B16F10 cells were seeded onto six-well plates and treated as specified for 72 hours at 37°C. Treated and untreated cells were harvested, washed with PBS, and resuspended in 100 μl of binding buffer. […]

B16F10 tumors = test: B16F10 syngeneic tumor model with anti-PD1; type: in vivo; settings: B16F10 tumors; 20 mg/kg i.p. daily plus anti-PD1 100 μg i.p. every three days
Description: Figure 4 LD4172 synergizes with Anti-PD1 to inhibit tumor growth. A, Plasma concentrations of LD4172 in C57BL/6J mice administered 1 mg/kg intravenously (i.v.) or 10 mg/kg intraperitoneally (i.p.) (n=4). B, Representative immunoblots of RIPK1 in different tissues of C57BL/6J mice treated with LD4172 (n=3–4). C, Densitometric analysis of RIPK1 protein levels in different tissues (n=3 or 4). D, Representative immunoblots of RIPK1 levels of B16F10 cells transduced with gRNA specific for RIPK1 or non-targetable control (sgNC). E, B16F10-RIPK1-KO tumors sensitized to anti-PD1 treatment: 3×10^5 B16F10 cells transduced with gRNA specific for RIPK1 or non-targetable control (sgNC) were inoculated into C57BL/6J mice. After seven days, mice with measurable tumors (~100 mm3) were randomly treated with or without anti-PD1 in vivo (100 μg per dose, i.p., every three days, n=8). F, Tumor growth curve of mice with B16F10 tumors treated with LD4172 and/or anti-PD1 (n=8). C57B6/J mice were subcutaneously inoculated with 3×10^5 B16F10 tumor cells. After seven days (tumor size ~ 100 mm3), mice were treated every three days with anti- PD1 (100 μg per dose, i.p.), daily with LD4172 (20 mg/kg, i.p.), a combination of LD4172 and anti-PD1 (same dose as their individual doses), or their corresponding vehicle control. G, Kaplan-Meier survival curve for all experimental groups. H, Final tumor weight (g) from F after 22d of treatment (n=8). I, Representative images of B16F10 tumors collected at the end of treatment. J, Mouse body weight (n=8). K, Tumor growth curve of mice with B16F10 tumors treated with T2I and/or anti-PD1 (n=8). The experimental conditions and treatment regimens were the same as F except using the RIPK1 kinase inhibitor T2I (20 mg/kg, i.p.) to replace LD4172. Representative data from at least three independent experiments are shown. Data are expressed as the mean ± SEM. * p<0.05; ** p<0.01; *** p<0.001, **** p<0.0001, respectively. ns, indicates no statistical significance.
To establish a syngeneic mouse model, 3× 10^5 B16F10 cells resuspended in PBS were mixed 1:1 by volume with Matrigel (354262, Corning) and subcutaneously injected into the right flank of seven-week-old wild-type female C57BL/6J mice on day 0. Treatments were started on day 7 when the tumor volume reached approximately 100 mm^3. Antibodies were administered in 100μL volumes and injected intraperitoneally every three days for the following: anti-PD1 (100 μg, BE0146, BioXcell) and anti-CD8 (500 μg, BE0004, BioXcell). The RIPK1 degrader LD4172 and RIPK1 kinase inhibitor T2I were delivered in 200 μL of vehicle solution (30% PEG400, 5% Tween-80, 5% DMSO) once daily (20 mg/kg, i.p. injection). […] Tumors were measured every three days beginning on day 7 after the challenge until death. […]

CCn1cc(-c2ccc3c(c2)CCN3C(=O)Cc2cccc(OC(F)(F)F)c2)c2c(N)ncnc21 [T2I, reference compound]
cell death / apoptosis in combination with TNFα (B16F10 cells): did not trigger TNFα-mediated apoptosis | tumor response in combination with anti-PD1 (B16F10 tumors): failed to sensitize B16F10 tumors to anti-PD1 treatment
